Holding throughout (type): cell-based
Assay [1] concerns L. monocytogenes. Put plainly: L. monocytogenes challenge in beef plant chill brine at 4° C. To be noted: after 4 hours at 4° C.; surfactant added to beef plant brine, approximately 17% sodium chloride. How it is done: (§1) 1. Inoculate a separate tube containing approximately 10 ml of Brain Heart infusion (BHI) broth with the following L. monocytogenes strains: H2446 (CDC Global Standard), Scott A (serotype 4b), 12243 (serotype 1/2a), and two strains isolated from the environment of a cooked meat and poultry facility, designated WP1, and WP4. Incubate the tubes at least 5 days at 7-10° C.+/−2° C. 2. Assume the growth to be 10^9 cfu/ml. Serially dilute each culture in cold (˜7° C.). Butterfield's Phosphate Buffered Water (PBW) to 10^8 cfu/ml (1:10). Since five cultures of L. monocytogenes are being used as a cocktail, begin the dilution series using 2.20 ml of each culture added to 99 ml of PBW. 3. Plate (−6, −7, −8) the diluted culture to get the starting count of the inoculum on Modified Oxford medium (MOX) using a thin agar overlay (TAL) technique (overlay with Trypticase Soy Agar [TSA]) to revive injured cells. 4. Add 1 ml of the diluted cocktail to 100 ml of cold test solution. 5. Mix the solutions well. 6. Determine the L. monocytogenes population at time 0 and 4 hours. Plate −1 (0.1 ml on 1 plate), −2, −3, and −4 dilutions using spread plates on MOX TAL with TSA. 7. Incubate the test solutions at test temperature for the duration of the experiment. 8. Incubate the MOX TAL with TSA plates at 20° C.+/−2° C. for 72+/−3 hours. Count representative colonies, which are black, and multiply by the dilution factor.
Several tests were carried out to determine the effectiveness of embodiments according to the invention in meat processing chill brines. In one experiment, brine was taken at the end of a production week from a brine chiller used in a ready to eat, cooked beef production line. The sodium chloride concentration in this brine was approximately 17%. Samples of the brine with and without added surfactant were inoculated with a cocktail of L. monocytogenes as per the procedure described above, incubated at 4° C. for four hours, and then plated to determine L. monocytogenes survival.

Assay [2] deals with L. monocytogenes. In words: L. monocytogenes cocktail challenge of surfactant/salt solutions at 2° C. To be noted: after 4 hours in solution at 2° C. How it is done:
Tests were generally run according to the following procedure:
as §1

In assay [3] the test system is Escherichia coli ATCC 11229. In words: E. coli kill in acid/SLS solutions with and without salt. To be noted: for % Kill of E. Coli: 0.6409 grams malic acid and 0.0107 grams sodium lauryl sulfate per liter, with 107.0 grams of the listed salt or without; for kill of E. coli by solution containing only the salt: only the salt and no other ingredient. How it is done:
Ten percent by weight solutions were prepared of a formula of 0.6% citric or malic acid, 100 ppm SLS, and 99.4% sodium chloride. Solutions were also prepared containing an identical concentration of acid and SLS but no sodium chloride. […] A 1.0 ml aliquot of this suspension was added to 100 ml of test solution at room temperature and mixed well, providing an initial inoculum of 10^3 CFU/ml. After 30 minutes, the E. coli populations were enumerated by plating on tryptic soy agar (TSA), making serial dilutions as necessary in BPBW. Plates were incubated at 35° C.+/−2° C. for approximately 24 hours. Colonies were then counted and compared to the initial inoculum counts.
A test was run to determine if salts other than sodium chloride would show a synergistic antimicrobial effect with an acid and sodium lauryl sulfate. Solutions containing 0.6409 grams malic acid and 0.0107 grams sodium lauryl sulfate per liter were prepared with and without 107.0 grams of various salts (added on an anhydrous basis). Solutions were inoculated with E. coli described above and the amount of bacterial kill was measured to determine if the added salt caused an increase in the effectiveness of the acid/surfactant active ingredients.

For assay [4], the system named is L. monocytogenes. In words: L. monocytogenes kill in cold salt/acid/surfactant solutions. The note with it: for Population at 4 hours: concentrations stated in the solution, no added acid, average of two runs where starred; for L. monocytogenes, Time 4 Hours / L. monocytogenes, Time 0: cold. How it is done:
To study chilling brine application of the current embodiment, tests were run on 17% by weight solutions of formulas consisting of between 0.3% and 6.0% citric acid, between 50 and 500 ppm SLS, and between 94% and 99.7% sodium chloride. Test solutions were cooled to −7° C. and inoculated with several strains of L. monocytogenes.
An experiment was run to determine if solutions containing sodium chloride, sodium lauryl sulfate, and various acids would kill L. monocytogenes at cold temperatures. […] A 1.0 ml aliquot of this suspension was added to 100 ml of cold (−7° C.+2° C.) test solution and mixed well, providing an initial inoculum of 10^3 CFU/ml. The test solutions were incubated at −7° C.+/−2° C. for the duration of the experiment. At intervals of 0, 4, and 24 hours the L. monocytogenes populations in the test solutions were determined on Modified Oxford agar (MOX). MOX plates were incubated at 35° C.+/−2° C. for approximately 48 hours. Colonies were then counted and compared to the initial inoculum counts.
Each test solution was a 17% by weight solution of the listed formula prepared in soft water.
In another experiment, 17% by weight solutions of formulas containing various levels of sodium chloride, citric acid, and sodium lauryl sulfate were tested for effectiveness in killing L. monocytogenes at cold temperatures. The same test procedure was used as described above, except test solutions were plated on MOX with a Thin Agar Overlay of TSA (to aid in the recovery of injured cells).
In another experiment, two sets of solutions were tested. The first set (samples 1-12 in Table 10 below) was prepared in hard tap water and contained about 17.0% by mass of the formulation. These samples were inoculated with 10^3 CFU/ml L. monocytogenes by the same procedure as described above. A second set of samples was prepared from brine taken from a ready-to-eat meat processing operation. The recirculated brine had been used to chill packaged meat for one week. After a week of use the brine typically contains various types of aerobic psychotropic and mesophilic bacteria. This experiment was done in order to determine if the additives would kill the microorganisms naturally occurring in actual process brine from a plant. Since the spent chill brine samples already contained NaCl citric acid and/or SLS was added to provide an effective concentration of additive. One set of these samples (samples 13-17) were inoculated with 10^3 L. monocytogenes and the other set (samples 18-22) contained only the naturally occurring organisms in the spent chill brine. […] Other antimicrobials, such as quaternary ammonium compounds can lose significant activity in hard water, often necessitating further additives, such as EDTA as a chelating agent, to maintain antimicrobial activity.
Another set of experiments was done in order to determine the effectiveness of different acids and different types of surfactants in the antimicrobial salt formulations. In one experiment, test solutions containing ˜17% by weight of formulas containing various levels of sodium chloride, 100 ppm sodium lauryl sulfate, and various levels of different acids were tested for effectiveness in killing L. monocytogenes at cold temperatures. The same test procedure was used as described above (test solutions were plated on MOX TAL (Modified Oxford Medium with a Thin Agar Layer) with TSA). The controls were a solution of pure NaCl, a solution of a blend of 100 ppm SLS in NaCl, and a solution of a blend of 0.5% citric acid, 100 ppm SLS, and 99.5% NaCl.

[5] abbreviates: Table 2, different salts and salt concentrations.
The mark [6] stands for this setting: 17% by weight of formula of 99.7% sodium chloride, 0.3% citric acid, 500 ppm of listed surfactant.

Marks after values point to notes of the source that are not given here. A value given as a limit tells only on which side of the number the result lay.

For “fatty alkanolaminde [25 ppm fatty alkanolaminde]”, the L. mono count in the assay with L. monocytogenes [1] was less than 10 cfu/mL. Take `O=C[O-].[Na+]` [20% Sodium Formate, Sodium Formate, reference compound]: the L. mono count in the assay on L. monocytogenes [2] (setting [5]) was 3.6 × 10^5 cfu/mL. For the compound `O=S(=O)([O-])[O-].[Mg+2]` [Magnesium sulfate], in assay [3], the “% Kill of E. Coli” value turned out to be 93% and the “kill of E. coli by solution containing only the salt” value is 10%. For `CCCCCCCCCCCCOS(=O)(=O)[O-].[Na+]` [50 ppm SLS (no NaCl), sodium lauryl sulfate], in the assay with L. monocytogenes [4], the “Population at 4 hours” value is given as 3.90* log cfu/mL. As to dodecyl diphenyl oxide disulfonate, in the assay with L. monocytogenes [4] (setting [6]), the “L. monocytogenes, Time 4 Hours” value came to 0 CFU/ml and the “L. monocytogenes, Time 0” value came out at 0 CFU/ml.

Regarding `CC(=O)[O-].[K+]` [20% Potassium Acetate, Potassium Acetate, reference compound], the L. mono count with L. monocytogenes [2] (setting [5]) is given as 4.2 × 10^5 cfu/mL. alpha-olefin sulfonate: in the assay on L. monocytogenes [4] (setting [6]), the “L. monocytogenes, Time 4 Hours” value amounted to 0 CFU/ml and the “L. monocytogenes, Time 0” value is reported as 370 CFU/ml. Turning to `O=S(=O)([O-])[O-].[K+].[K+]` [Potassium sulfate], in assay [3], the “% Kill of E. Coli” value is 34% and the “kill of E. coli by solution containing only the salt” value is “no bacterial kill”.

On to `[Cl-].[Na+]` [Salt control, reference compound], for which the “L. monocytogenes, Time 4 Hours” value in the assay on L. monocytogenes [4] (˜17% solution of NaCl, 100 ppm SLS and listed acid to pH ˜3.6) came out at 1380 CFU/ml. The “L. monocytogenes, Time 0” value in the assay with L. monocytogenes [4] (˜17% solution of NaCl, 100 ppm SLS and listed acid to pH ˜3.6, MOX TAL) is 850 CFU/ml. sodium linear alkyl-benzene sulfonate: in the assay on L. monocytogenes [4] (setting [6]), the “L. monocytogenes, Time 4 Hours” value is listed as 0 CFU/ml and the “L. monocytogenes, Time 0” value came out at 490 CFU/ml. The compound “fatty alkanolaminde [12.5 ppm fatty alkanolaminde]” yielded a L. mono count in the assay on L. monocytogenes [1] of 40 cfu/mL.

In the case of `[Cl-].[Cl-].[Mg+2]` [Magnesium chloride], in assay [3], the “% Kill of E. Coli” value worked out at 56% and the “kill of E. coli by solution containing only the salt” value is on record as 61%. Consider “sodium olefin sulfonate [25 ppm sodium olefin sulfonate]”, for which the L. mono count in the assay on L. monocytogenes [1] was found to be 60 cfu/mL. Take “sulfonated oleic acid, Na salt [50 ppm sulfonated oleic acid, Na salt]”: the L. mono count in the assay on L. monocytogenes [2] (Table 1) is listed as 1.3 × 10^5 cfu/mL.

For the compound “nonylphenol ethoxylate [12.5 ppm nonylphenol ethoxylate]”, the L. mono count with L. monocytogenes [1] is recorded as 20 cfu/mL. As to lauramine oxide, in the assay on L. monocytogenes [4] (setting [6]), the “L. monocytogenes, Time 4 Hours” value was 0 CFU/ml and the “L. monocytogenes, Time 0” value is recorded as 2 CFU/ml.

Take fatty alkanolamide: in the assay on L. monocytogenes [4] (setting [6]), the “L. monocytogenes, Time 4 Hours” value came to 0 CFU/ml and the “L. monocytogenes, Time 0” value was found to be 470 CFU/ml. As to “nonylphenol ethoxylate [25 ppm nonylphenol ethoxylate]”, the L. mono count in the assay with L. monocytogenes [1] was less than 10 cfu/mL. The same measure, in the same setting: the same measure for “sodium olefin sulfonate [12.5 ppm sodium olefin sulfonate]”: 110 cfu/mL. As to nonylphenol ethoxylate, in the assay on L. monocytogenes [4] (setting [6]), the “L. monocytogenes, Time 4 Hours” value came to 0 CFU/ml and the “L. monocytogenes, Time 0” value was 460 CFU/ml. In the case of `[Cl-].[Na+]` [sodium chloride, reference compound], the “% Kill of E. Coli” value in assay [3] came to 78%. Moreover, the “kill of the test microorganisms” value in assay [3] (10% solution of pure sodium chloride) is reported as “does not provide any significant kill”. Further, the “log reduction of the L. monocytogenes over a 24-hour period” value with L. monocytogenes [4] (brine of sodium chloride alone, 24-hour period) is on record as less than 1 log. With “C12(branched) sodium diphenyl oxide disulfonate”, the L. mono count in the assay with L. monocytogenes [2] (setting [5]) is given as 3.1 × 10^4 cfu/mL. As to `O=S(=O)([O-])[O-].[Na+].[Na+]` [Sodium sulfate], in assay [3], the “% Kill of E. Coli” value is recorded as 87% and the “kill of E. coli by solution containing only the salt” value is “no bacterial kill”.

Regarding `[Cl-].[K+]` [Potassium chloride], in assay [3], the “% Kill of E. Coli” value is 18% and the “kill of E. coli by solution containing only the salt” value was “no bacterial kill”. Turning to “polyoxyethylene-polyoxypropylene block polymer”, in the assay on L. monocytogenes [4] (setting [6]), the “L. monocytogenes, Time 4 Hours” value was 610 CFU/ml and the “L. monocytogenes, Time 0” value is 820 CFU/ml. The corresponding values for sodium xylene sulfonate are 820 CFU/ml and 910 CFU/ml. As for alkylpolyglucoside, in the assay on L. monocytogenes [4] (setting [6]), the “L. monocytogenes, Time 4 Hours” value was determined as 0 CFU/ml and the “L. monocytogenes, Time 0” value is 280 CFU/ml. For the compound “alkyl polyglucoside [50 ppm alkyl polyglucoside]”, the L. mono count in the assay on L. monocytogenes [2] (Table 1) is recorded as 9.6 × 10^4 cfu/mL. Turning to `[Cl-].[Na+]` [20% NaCl (control), sodium chloride, reference compound], the L. mono count with L. monocytogenes [2] (Table 1) is 1.0 × 10^5 cfu/mL; with L. monocytogenes [2] (setting [5]), 4.0 × 10^5 cfu/mL. Also, the “Population at 4 hours” value with L. monocytogenes [4] came to 4.32 log cfu/mL. For the compound `[Ca+2].[Cl-].[Cl-]` [Calcium chloride], in assay [3], the “% Kill of E. Coli” value is given as 55% and the “kill of E. coli by solution containing only the salt” value is on record as 26%. Turning to sodium salt of sulfonated oleic acid, in the assay with L. monocytogenes [4] (setting [6]), the “L. monocytogenes, Time 4 Hours” value is listed as 0 CFU/ml and the “L. monocytogenes, Time 0” value came to 240 CFU/ml. In the case of `CC(=O)[O-].[Na+]` [20% Sodium Acetate, Sodium Acetate, reference compound], the L. mono count with L. monocytogenes [2] (setting [5]) is listed as 3.0 × 10^4 cfu/mL.

The values are drawn from patent US20110212235A1, “ANTIMICROBIAL SALT SOLUTIONS FOR CHEESE PROCESSING APPLICATIONS” (priority 2006, published 2011).
